Inhibition and IC50 data for 24 compounds are collected here from patent US20240083857A1, “2-Methyl-Quinazolines” (Bayer Pharma Aktiengesellschaft, priority 2017, published 2024).

SMILES strings stand for the structures. Like-named read-outs stand apart in the source and are kept apart here.

For assay [1], the target named is human SOS1 (nucleotide exchange of K-Ras^G12C) (Homo sapiens, UniProt Q07889). As to the kind of experiment: Biochemical assay 2: K-Ras^G12C activation assay by hSOS1 at high GTP concentration (HTRF). The conditions noted are these: for inhibition at 20 µM: read-out: Assay 2 (KRAS-Activation by SOS high GTP) activity expressed as % inhibition at 20 μM.
Assay [2] has as its target human SOS1 (loading of human K-Ras^G12C-GDP with fluorescent GTP-analog) (Homo sapiens, UniProt Q07889). Description: Biochemical assay 3: K-Ras^G12C activation assay by hSOS1 (HTRF). As to conditions: for inhibition at 20 µM: read-out: Assay 3 (KRAS-Activation by SOS no GTP) activity expressed as % inhibition at 20 μM.
For assay [3], the target named is K-Ras^G12C : hSOS1 interaction (Homo sapiens, UniProt Q07889). As to the kind of experiment: Biochemical assay 1: K-Ras^G12C interaction assay with hSOS1 (HTRF). The conditions noted are these: for inhibition at 20 µM: read-out: Assay 1 (KRAS-SOS Interaction) activity expressed as % inhibition at 20 μM. The assay is classed as binding.
The mark [4] stands for this setting: high GTP, read-out: Assay 2 (KRAS-Activation by SOS high GTP) activity expressed as IC50.
Setting [5] is: no GTP, read-out: Assay 3 (KRAS-Activation by SOS no GTP) activity expressed as IC50.
Setting [6] is: read-out: Assay 1 (KRAS-SOS Interaction) activity expressed as IC50.
[7] abbreviates: E-notation values, unit inferred, 50 μM GTP, read-out: Assay 2 (KRAS-Activation, high GTP) IC50.
Where [8] appears, read: E-notation values, unit inferred, read-out: Assay 3 (KRAS-Activation) IC50.
Setting [9] is: E-notation values, unit inferred, read-out: Assay 1 (KRAS-SOS interaction) IC50.

On to `COc1cc2nc(C)nc(N[C@@H](C)c3ccc(/C=C/Cc4ccccc4)s3)c2cc1OC` (racemic) [Example 145, 6,7-dimethoxy-2-methyl-N-[1-{5-[(1E)-3-phenylprop-1-en-1-yl]thiophen-2-yl}ethyl]quinazolin-4-amine], for which the inhibition at 20 µM in assay [1] (high GTP) amounted to 18%; in assay [2] (no GTP), 11%; in assay [3], 40%.
Take `CCCOc1ccc(Cl)cc1-c1cccc([C@@H](C)Nc2nc(C)nc3cc(OC)c(OC)cc23)c1` [Example 77, N-[(1R)-1-(5′-chloro-2′-propoxybiphenyl-3-yl)ethyl]-6,7-dimethoxy-2-methylquinazolin-4-amine]: the half-maximal inhibitory concentration (IC50) turned out to be 9.63 µM in assay [1] (setting [4]), 19.9 µM in assay [2] (setting [5]) and 7.86 µM in assay [3] (setting [6]).
As for `CCCNC(=O)c1ccc(-c2cccc([C@@H](C)Nc3nc(C)nc4cc(OC)c(OC)cc34)c2)cc1` [Example 73, 3′-{(1R)-1-[(6,7-dimethoxy-2-methylquinazolin-4-yl)amino]ethyl}-N-propylbiphenyl-4-carboxamide], the IC50 in assay [1] (setting [4]) was 0.554 µM; in assay [2] (setting [5]), 0.495 µM; in assay [3] (setting [6]), 0.427 µM.
For the compound `COc1cc2nc(C)nc(N[C@@H](C)c3ccc(-c4cccc(/C=C/C#N)c4)s3)c2cc1OC` (racemic) [Example 160, (2E)-3-[3-(5-{1-[(6,7-dimethoxy-2-methylquinazolin-4-yl)amino]ethyl}thiophen-2-yl)phenyl]prop-2-enenitrile], the inhibition at 20 µM in assay [1] (high GTP) worked out at 33%; in assay [2] (no GTP), 13%. The half-inhibitory concentration (IC50) in assay [3] (setting [6]) was 16.1 µM.
Consider `CCCCOc1cccc(F)c1-c1cccc([C@@H](C)Nc2nc(C)nc3cc(OC)c(OC)cc23)c1` [Example 67, N-[(1R)-1-(2′-butoxy-6′-fluorobiphenyl-3-yl)ethyl]-6,7-dimethoxy-2-methylquinazolin-4-amine], for which the values for the IC50 in assay [1] (setting [4]) and in assay [3] (setting [6]) were 19.6 µM and 9.98 µM, respectively. In assay [2] (no GTP), the inhibition at 20 µM was determined as 54%.
As to `COc1cc2nc(C)nc(N[C@H](C)c3cccc(-c4c(F)ccc(C)c4Cl)c3)c2cc1OC` [Example 40, N-[(1R)-1-(2′-chloro-6′-fluoro-3′-methylbiphenyl-3-yl)ethyl]-6,7-dimethoxy-2-methylquinazolin-4-amine], the half-maximal inhibitory concentration (IC50) in assay [1] (setting [4]) was found to be 1.75 µM; in assay [2] (setting [5]), 4.55 µM; in assay [3] (setting [6]), 3.85 µM.
`COc1ccc2oc(-c3cccc([C@@H](C)Nc4nc(C)nc5cc(OC)c(OC)cc45)c3)cc2c1` [Example 66, 6,7-dimethoxy-N-{(1R)-1-[3-(5-methoxy-1-benzofuran-2-yl)phenyl]ethyl}-2-methylquinazolin-4-amine]: the IC50 in assay [1] (setting [4]) amounted to 4.55 µM; in assay [2] (setting [5]), 6.6 µM; in assay [3] (setting [6]), 3.46 µM.
As to `Cc1nc(NC(C)c2ccc(-c3ccccc3CN(C)C)s2)c2cc(N3CCCC3)ccc2n1` (stereo not drawn) [Example 415, N-[1-(5-{2-[(dimethylamino)methyl]phenyl}thiophen-2-yl)ethyl]-2-methyl-6-(pyrrolidin-1-yl)quinazolin-4-amine], the values for the IC50 in assay [1] (setting [7]), in assay [2] (setting [8]) and in assay [3] (setting [9]) were 0.0885 µM, 0.0942 µM and 0.115 µM, respectively.
Consider `COc1cc2nc(C)nc(NC(C)c3ccc(-c4ccccc4CNCC(=O)NCc4ccccc4)s3)c2cc1OC` (stereo not drawn) [Example 284, N-benzyl-2-[2-(5-{1-[(6,7-dimethoxy-2-methylquinazolin-4-yl)amino]ethyl}thiophen-2-yl)benzyl]glycinamide], for which the IC50 worked out at 0.879 µM in assay [1] (setting [4]), 0.889 µM in assay [2] (setting [5]) and 1.06 µM in assay [3] (setting [6]).
Consider `COc1cc2nc(C)nc(NC(C)c3ccc(-c4ccc(Br)cc4CN(C)C)s3)c2cc1OC` (stereo not drawn) [Example 384, N-(1-(5-(4-bromo-2-((dimethylamino)methyl)phenyl)thiophen-2-yl)ethyl)-6,7-dimethoxy-2-methylquinazolin-4-amine], for which the IC50 in assay [1] (setting [7]) is 0.0665 µM; in assay [2] (setting [8]) it was 0.0846 µM; in assay [3] (setting [9]) it was 0.123 µM.
For the compound `COc1cc2nc(C)nc(N[C@H](C)c3cccc(-c4ccncc4C)c3)c2cc1OC` [Example 108, 6,7-dimethoxy-2-methyl-N-{(1R)-1-[3-(3-methylpyridin-4-yl)phenyl]ethyl}quinazolin-4-amine], the IC50 was determined as 0.901 µM in assay [1] (setting [4]), 1.23 µM in assay [2] (setting [5]) and 0.821 µM in assay [3] (setting [6]).
`COc1cc2nc(C)nc(N[C@H](C)c3cccc(-c4cccc5[nH]ccc45)c3)c2cc1OC` [Example 110, N-{(1R)-1-[3-(1H-indol-4-yl)phenyl]ethyl}-6,7-dimethoxy-2-methylquinazolin-4-amine]: the IC50 in assay [1] (setting [4]) was 0.908 µM; in assay [2] (setting [5]), 1.19 µM; in assay [3] (setting [6]), 1.04 µM.
On the same counts, the results for `COc1cc2nc(C)nc(N[C@H](C)c3ccc(C#N)cc3)c2cc1OC` [Example 189, 4-{(1R)-1-[(6,7-dimethoxy-2-methylquinazolin-4-yl)amino]ethyl}benzonitrile] are 1.17 µM, 2.76 µM and 0.998 µM.
Taken in the same sequence, the figures for `COc1cc2nc(C)nc(N[C@H](C)c3cccc(-c4ccccc4C(=O)N(C)C)c3)c2cc1OC` [Example 103, 3′-{(1R)-1-[(6,7-dimethoxy-2-methylquinazolin-4-yl)amino]ethyl}-N,N-dimethylbiphenyl-2-carboxamide] were 2.48 µM, 2.74 µM and 1.44 µM.
On the same counts, the results for `COc1cc2nc(C)nc(N[C@H](C)c3cccc(-c4cncc(S(C)(=O)=O)c4)c3)c2cc1OC` [Example 56, 6,7-dimethoxy-2-methyl-N-[(1R)-1-{3-[5-(methylsulfonyl)pyridin-3-yl]phenyl}ethyl]quinazolin-4-amine] are 1.79 µM, 2.56 µM and 1.47 µM.
For the compound `COc1cc2nc(C)nc(N[C@H](C)c3cccc(-c4ccc5c(c4)OCCO5)c3)c2cc1OC` [Example 125, N-{(1R)-1-[3-(2,3-dihydro-1,4-benzodioxin-6-yl)phenyl]ethyl}-6,7-dimethoxy-2-methylquinazolin-4-amine], the values for the IC50 in assay [1] (setting [4]), in assay [2] (setting [5]) and in assay [3] (setting [6]) were 1.09 µM, 2.04 µM and 2.03 µM, respectively.
On the same counts, the results for `COc1cc2nc(C)nc(N[C@H](C)c3cccc(-c4cccc(/C=C/C#N)c4)c3)c2cc1OC` [Example 93, (2E)-3-(3′-{(1R)-1-[(6,7-dimethoxy-2-methylquinazolin-4-yl)amino]ethyl}biphenyl-3-yl)prop-2-enenitrile] are 1.58 µM, 2.89 µM and 1.85 µM.
With `COc1cc2nc(C)nc(N[C@@H](C)c3ccc(/C=C/c4ccccc4)s3)c2cc1OC` (racemic) [Example 175, 6,7-dimethoxy-2-methyl-N-[1-{5-[(E)-2-phenylethenyl]thiophen-2-yl}ethyl]quinazolin-4-amine], the inhibition at 20 µM in assay [1] (high GTP) was found to be 50%; in assay [2] (no GTP), 44%. Also, the IC50 in assay [3] (setting [6]) is 17.6 µM.
As for `CCCCOc1cccc(F)c1-c1ccc([C@H](C)Nc2nc(C)nc3cc(OC)c(OC)cc23)s1` (stereo in doubt) [Example 136, N-{1-[5-(2-butoxy-6-fluorophenyl)thiophen-2-yl]ethyl}-6,7-dimethoxy-2-methylquinazolin-4-amine], the inhibition at 20 µM worked out at 20% in assay [1] (high GTP), 18% in assay [2] (no GTP) and 37% in assay [3].
Turning to `COc1cc2nc(C)nc(N[C@H](C)c3cccc(-c4ccn[nH]4)c3)c2cc1OC` [Example 75, 6,7-dimethoxy-2-methyl-N-{(1R)-1-[3-(1H-pyrazol-3-yl)phenyl]ethyl}quinazolin-4-amine], the results for the IC50 in assay [1] (setting [4]), in assay [2] (setting [5]) and in assay [3] (setting [6]) were 1.15 µM, 1.01 µM and 0.588 µM, respectively.
Taken in the same sequence, the figures for `COc1cc2nc(C)nc(N[C@@H](C)c3ccc(-c4ccc(C)cc4C)s3)c2cc1OC` (racemic) [Example 161, N-{1-[5-(2,4-dimethylphenyl)thiophen-2-yl]ethyl}-6,7-dimethoxy-2-methylquinazolin-4-amine] were 3.97 µM, 7 µM and 4.17 µM.
As for `COc1cc2nc(C)nc(N[C@H](C)c3cccc(-c4cccc(C(=O)N(C)C)c4)c3)c2cc1OC` [Example 106, 3′-{(1R)-1-[(6,7-dimethoxy-2-methylquinazolin-4-yl)amino]ethyl}-N,N-dimethylbiphenyl-3-carboxamide], the IC50 in assay [1] (setting [4]) turned out to be 1.53 µM; in assay [2] (setting [5]) it was 2.05 µM; in assay [3] (setting [6]), 1.41 µM.
For the compound `COc1cc2nc(C)nc(N[C@H](C)c3cccc(-c4ccc(C(=O)N(C)C)cc4)c3)c2cc1OC` [Example 115, 3′-{(1R)-1-[(6,7-dimethoxy-2-methylquinazolin-4-yl)amino]ethyl}-N,N-dimethylbiphenyl-4-carboxamide], the IC50 in assay [1] (setting [4]) stood at 0.802 µM; in assay [2] (setting [5]), 1.57 µM; in assay [3] (setting [6]) it was 0.865 µM.
On the same counts, the results for `COc1cc2nc(C)nc(N[C@H](C)c3cccc(-c4cnc5[nH]ccc5c4)c3)c2cc1OC` [Example 60, 6,7-dimethoxy-2-methyl-N-{(1R)-1-[3-(1H-pyrrolo[2,3-b]pyridin-5-yl)phenyl]ethyl}quinazolin-4-amine] are 0.448 µM, 1.04 µM and 0.585 µM.
